Assay results as given in ChEMBL document CHEMBL1153288, “1,3,4-Oxadiazole substituted naphthyridines as HIV-1 integrase inhibitors. Part 2: SAR of the C5 position” (Bioorg Med Chem Lett, 2009).

How the values were obtained:
[1] = Inhibition of recombinant HIV integrase strand transfer activity; set-up: species or system Human immunodeficiency virus
[2] = system: Human immunodeficiency virus; experiment: Antiviral activity against G-pseudotyped HIV expressed in 293T cells with pGI3Luci; type: functional, organism-based; settings: Human immunodeficiency virus 1, HEK-293T
[3] = Therapeutic index, CC50 for human 293T cells to EC50 for G-pseudotyped HIV; type: cell-based; settings: read-out: Ratio CC50/EC50

`Oc1c(-c2nnc(Cc3ccc(F)cc3)o2)nc(-n2cccn2)c2cccnc12` showed an IC50 [1] of 4 nM, an EC50 [2] of 16 nM and a selectivity ratio [3] of 546.

For `O=C(O)c1cccc(-c2nc(-c3nnc(Cc4ccc(F)cc4)o3)c(O)c3ncccc23)c1`, the IC50 [1] was 2 nM, the EC50 [2] was 230 nM and the selectivity ratio [3] was greater than 60.

With `NC(=O)c1ccc(-c2nc(-c3nnc(Cc4ccc(F)cc4)o3)c(O)c3ncccc23)cc1` the IC50 [1] was 6 nM, the EC50 [2] was 10 nM and the selectivity ratio [3] was 1220.

With `CNC(=O)c1ccc(-c2nc(-c3nnc(Cc4ccc(F)cc4)o3)c(O)c3ncccc23)cc1` the IC50 [1] was 4 nM, the EC50 [2] was 12 nM and the selectivity ratio [3] was 780.

`CN1CCN(c2nc(-c3nnc(Cc4ccc(F)cc4)o3)c(O)c3ncccc23)S1(=O)=O` showed an IC50 [1] of 4 nM, an EC50 [2] of 63 nM and a selectivity ratio [3] of 137.

With `O=C(O)c1ccc(-c2nc(-c3nnc(Cc4ccc(F)cc4)o3)c(O)c3ncccc23)cc1` the IC50 [1] was 2 nM, the EC50 [2] was 58 nM and the selectivity ratio [3] was 241.

Work on `O=S1(=O)CCCCN1c1nc(-c2nnc(Cc3ccc(F)cc3)o2)c(O)c2ncccc12` yielded an IC50 [1] of 2 nM, an EC50 [2] of 13 nM and a selectivity ratio [3] of 198.

In the case of `CS(=O)(=O)Nc1ccc(-c2nc(-c3nnc(Cc4ccc(F)cc4)o3)c(O)c3ncccc23)cc1`, the IC50 [1] is reported as 3 nM, the EC50 [2] is reported as 9 nM and the selectivity ratio [3] is reported as 915.

Work on `CS(=O)(=O)c1ccc(-c2nc(-c3nnc(Cc4ccc(F)cc4)o3)c(O)c3ncccc23)cc1` yielded an IC50 [1] of 9 nM, an EC50 [2] of 8 nM and a selectivity ratio [3] of 301.

`CNS(=O)(=O)c1ccccc1-c1nc(-c2nnc(Cc3ccc(F)cc3)o2)c(O)c2ncccc12` gave an IC50 [1] of 4 nM, an EC50 [2] of 22 nM and a selectivity ratio [3] of 173.

With `O=C1NCCCN1c1nc(-c2nnc(Cc3ccc(F)cc3)o2)c(O)c2ncccc12` the IC50 [1] was 11 nM, the EC50 [2] was 56 nM and the selectivity ratio [3] was greater than 250.

Work on `Oc1c(-c2nnc(Cc3ccc(F)cc3)o2)nc(-c2ccncc2)c2cccnc12` yielded an IC50 [1] of 8 nM, an EC50 [2] of 35 nM and a selectivity ratio [3] of 200.

Work on `CS(=O)(=O)Nc1cccc(-c2nc(-c3nnc(Cc4ccc(F)cc4)o3)c(O)c3ncccc23)c1` yielded an IC50 [1] of 8 nM, an EC50 [2] of 14 nM and a selectivity ratio [3] of 435.

`O=S1(=O)CCCN1c1nc(-c2nnc(Cc3ccc(F)cc3)o2)c(O)c2ncccc12` showed an IC50 [1] of 8 nM, an EC50 [2] of 110 nM and a selectivity ratio [3] greater than 129.

In the case of `CC(C)NS(=O)(=O)c1ccc(-c2nc(-c3nnc(Cc4ccc(F)cc4)o3)c(O)c3ncccc23)cc1`, the IC50 [1] is reported as 4 nM, the EC50 [2] is reported as 15 nM and the selectivity ratio [3] is reported as 118.

With `CC(=O)Nc1ccc(-c2nc(-c3nnc(Cc4ccc(F)cc4)o3)c(O)c3ncccc23)cc1` the IC50 [1] was 4 nM, the EC50 [2] was 6 nM and the selectivity ratio [3] was 591.

In the case of `COCCNC(=O)c1nc(-c2nnc(Cc3ccc(F)cc3)o2)c(O)c2ncccc12`, the IC50 [1] is reported as 190 nM and the selectivity ratio [3] is reported as 139.

For `O=C1CN(c2nc(-c3nnc(Cc4ccc(F)cc4)o3)c(O)c3ncccc23)CCN1`, the IC50 [1] was 7 nM, the EC50 [2] was 17 nM and the selectivity ratio [3] was 844.

`O=C1CN(C(=O)c2nc(-c3nnc(Cc4ccc(F)cc4)o3)c(O)c3ncccc23)CCN1` showed an IC50 [1] of 74 nM and an EC50 [2] greater than 14000 nM.

`CN1CCCN(c2nc(-c3nnc(Cc4ccc(F)cc4)o3)c(O)c3ncccc23)S1(=O)=O` gave an IC50 [1] of 6 nM, an EC50 [2] of 31 nM and a selectivity ratio [3] of 294.

For `CN(C)S(=O)(=O)c1ccccc1-c1nc(-c2nnc(Cc3ccc(F)cc3)o2)c(O)c2ncccc12`, the IC50 [1] was 4 nM, the EC50 [2] was 29 nM and the selectivity ratio [3] was 67.

`N#Cc1nc(-c2nnc(Cc3ccc(F)cc3)o2)c(O)c2ncccc12` gave an IC50 [1] of 240 nM and an EC50 [2] greater than 35000 nM.

`CC(C)NC(=O)c1cccc(-c2nc(-c3nnc(Cc4ccc(F)cc4)o3)c(O)c3ncccc23)c1` showed an IC50 [1] of 10 nM, an EC50 [2] of 28 nM and a selectivity ratio [3] of 182.

Work on `CS(=O)(=O)c1cccc(-c2nc(-c3nnc(Cc4ccc(F)cc4)o3)c(O)c3ncccc23)c1` yielded an IC50 [1] of 6 nM, an EC50 [2] of 13 nM and a selectivity ratio [3] of 234.

In the case of `CC(C)NC(=O)c1ccc(-c2nc(-c3nnc(Cc4ccc(F)cc4)o3)c(O)c3ncccc23)cc1`, the IC50 [1] is reported as 4 nM, the EC50 [2] is reported as 13 nM and the selectivity ratio [3] is reported as 95.
